The record followed here is patent US11814364B2, “Pyridine N-oxide derivatives useful as factor XIa inhibitors” (Janssen Pharmaceutica NV, priority 2021, dated 2023).

The target in the test is human plasma kallikrein (Homo sapiens, UniProt P03952). As to the kind of experiment: Kallikrein inhibition FLINT assay with quenched AMC peptide substrate Z-Gly-Pro-Arg-AMC (end point EP or kinetic KIN reads). In kind it is biochemical. The conditions noted are these: kinetic reads at 5 min intervals over 30 min; read-out: Kallikrein (KIN) IC50. In short, it runs like this: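 Enzyme and compound were preincubated 30 min before adding 50 μM AMC substrate in pH 7.5 Tris/NaCl/CaCl2/BSA/CHAPS buffer. AMC release was read at 30 min endpoint or every 5 min.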
human plasma kallikrein, sequence (P03952 391-638 limits assumed): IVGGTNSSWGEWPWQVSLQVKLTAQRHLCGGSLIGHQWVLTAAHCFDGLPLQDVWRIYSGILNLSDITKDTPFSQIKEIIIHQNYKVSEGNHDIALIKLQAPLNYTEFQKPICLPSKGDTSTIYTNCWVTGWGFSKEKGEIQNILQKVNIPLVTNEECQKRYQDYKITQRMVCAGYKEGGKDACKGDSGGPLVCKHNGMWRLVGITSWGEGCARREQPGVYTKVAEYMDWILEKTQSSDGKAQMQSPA
human plasma kallikrein, sequence (P03952 20-390 partner limits assumed): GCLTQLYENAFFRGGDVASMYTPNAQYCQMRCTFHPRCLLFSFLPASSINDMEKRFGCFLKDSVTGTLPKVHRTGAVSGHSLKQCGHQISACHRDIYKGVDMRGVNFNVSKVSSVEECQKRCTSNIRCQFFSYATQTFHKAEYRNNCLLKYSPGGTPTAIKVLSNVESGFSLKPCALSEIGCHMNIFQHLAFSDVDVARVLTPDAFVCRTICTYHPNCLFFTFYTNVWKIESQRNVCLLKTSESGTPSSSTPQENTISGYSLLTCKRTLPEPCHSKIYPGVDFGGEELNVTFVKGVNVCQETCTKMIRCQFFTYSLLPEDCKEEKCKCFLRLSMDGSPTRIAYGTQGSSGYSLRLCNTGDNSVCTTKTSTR

Where only a bound is given, the exact number is not on record here.

Consider `Cn1nnc(F)c1-c1cnn(C(CCOC(F)F)c2ccc(-c3c(-c4cnco4)ccc(Cl)c3F)c[n+]2[O-])c1` (centres unmarked) [Example P846], for which the IC50 (in general, the concentration that gives 50% inhibition) was found to be 238 nM.
With `Cn1nncc1-c1cnn([C@H](CCOC(F)F)c2ccc(-c3c(N)ccc(Cl)c3F)c[n+]2[O-])c1` [Example Q44] the figure was 80.7 nM; with `CN1CCN(CC(c2ccc(-c3c(-n4cnnn4)ccc(Cl)c3F)c[n+]2[O-])n2cc(-c3ccnc(C(F)(F)F)c3)cn2)C1=O` (single isomer, unassigned) [Example P433], 105 nM; with `NC(=O)c1ccc(-c2cnn(C(CC3CC3)c3ccc(-c4c(-n5cnnn5)ccc(Cl)c4F)c[n+]3[O-])c2)cc1F` (single isomer, unassigned) [Example P947], 14.5 nM.
With `[O-][n+]1cc(-c2c(-n3cnnn3)ccc(Cl)c2F)ccc1[C@@H](Cc1ccc(F)cc1)n1cc(-c2cnnn2C(F)F)cn1` [Example P599] the figure was 4 nM; with `Cn1nncc1-c1cnn([C@H](Cn2cc(F)cn2)c2ccc(-c3c(-n4cc(Cl)nn4)ccc(Cl)c3F)c[n+]2[O-])c1` [Example P537], 96.7 nM; with `[O-][n+]1cc(-c2cc(Cl)ccc2-n2cnnn2)ccc1C(Cc1ccc(Cl)cc1)n1cc(-c2ccnc(C(F)(F)F)c2)cn1` (centres unmarked) [Example P250], 45.9 nM.
With `Cn1nnc(F)c1-c1cnn(C(Cc2ccn(C(F)F)n2)c2ccc(-c3c(-n4cc(Cl)nn4)ccc(Cl)c3F)c[n+]2[O-])c1` (centres unmarked) [Example P795] the figure was 32.6 nM; with `[O-][n+]1cc(-c2c(-n3cnnn3)ccc(Cl)c2F)ccc1C(CC1CC1)n1cc(-c2ccnnc2)cn1` (centres unmarked) [Example P397], 397 nM.
In the case of `[O-][n+]1cc(-c2c(-n3cnnn3)ccc(Cl)c2F)ccc1[C@@H](CC1CC1)n1cc(-c2c(F)cnn2C(F)F)cn1` [Example P628], the IC50 was 165 nM.
Turning to `Cn1cc(-c2cnn([C@H](Cc3ccn(C(F)F)n3)c3ccc(-c4c(-n5cc(C#N)nn5)ccc(Cl)c4F)c[n+]3[O-])c2)c(Cl)n1` [Example P852], the IC50 was 2.2 nM.
With `NC(=O)c1cnn(CC(c2ccc(-c3c(-n4cnnn4)ccc(Cl)c3F)c[n+]2[O-])n2cc(-c3ccnc(C(F)(F)F)c3)cn2)c1` (centres unmarked) [Example P483], the IC50 was 9.1 nM.
As for `[O-][n+]1cc(-c2c(-n3cc(Cl)nn3)ccc(Cl)c2F)ccc1[C@@H](Cn1cc(OC(F)F)cn1)n1cc(-c2cn(C(F)F)nn2)cn1` [Example P655], the figure is 734 nM; as for `Cc1nnc(CC(c2ccc(-c3c(-n4cc(C(F)(F)F)nn4)ccc(Cl)c3F)c[n+]2[O-])n2cc(-c3ccc(C(N)=O)c(F)c3)cn2)o1` (centres unmarked) [Example P927], 7.6 nM.
With `Nc1ncc(-c2cnn([C@H](CC3CC3)c3ccc(-c4c(-n5cnnn5)ccc(Cl)c4F)c[n+]3[O-])c2)s1` [Example P614] the figure was 8 nM; with `CC(C)C(=O)N(C)CC(c1ccc(-c2c(-n3cnnn3)ccc(Cl)c2F)c[n+]1[O-])n1cc(-c2ccnc(C(F)(F)F)c2)cn1` (single isomer, unassigned) [Example P421], 41.1 nM.
As for `Cn1ncnc1-c1cnn(C(CCOC(F)F)c2ccc(-c3c(-n4cc(C(F)(F)F)nn4)ccc(Cl)c3F)c[n+]2[O-])c1` (centres unmarked) [Example P757], the figure is 31.9 nM; as for `[O-][n+]1cc(-c2cc(Cl)ccc2-n2cnnn2)ccc1C(Cc1ccc(Cl)cc1)n1cc(-c2cc(Cl)ccc2-n2cnnn2)cn1` (centres unmarked) [Example P152], 895 nM; as for `COC(=O)Nc1ccc(-c2cnn(C(CC3CCC(C)(C)CC3)c3ccc(-c4c(-n5cnnn5)ccc(Cl)c4F)c[n+]3[O-])c2)cc1` (centres unmarked) [Example P122], 260 nM.
As to `N#Cc1cn(-c2ccc(Cl)c(F)c2-c2ccc([C@@H](CCOC(F)F)n3cc(-c4cnnn4C(F)F)cn3)[n+]([O-])c2)nn1` [Example P817], the IC50 amounted to 23.5 nM.
Take `Cn1ccc(CC(c2ccc(-c3c(-n4cnnn4)ccc(Cl)c3F)c[n+]2[O-])n2cc(-c3ccnc(C(F)(F)F)c3)cn2)n1` (centres unmarked) [Example P377]: the IC50 was 2.1 nM.
For `O=C(O)c1ccc(-c2cnn(C(Cc3ccc(-c4ccccc4)cc3)c3ccc(-c4cc(Cl)ccc4-n4cnnn4)c[n+]3[O-])c2)cc1` (centres unmarked) [Example P62], the half-inhibitory concentration (IC50) is 7.8 nM.
In the case of `Cc1cc(C(N)=O)sc1-c1cnn(C(CC2CC2)c2ccc(-c3c(-n4cnnn4)ccc(Cl)c3F)c[n+]2[O-])c1` (centres unmarked) [Example P960], the IC50 is 52.9 nM.
As for `[O-][n+]1cc(-c2c(-n3cnnn3)ccc(Cl)c2F)ccc1[C@H](Cc1ccc(F)cc1)n1cc(-c2ccnn2C(F)F)cn1` [Example P566], the IC50 was determined as 67.6 nM.
As for `COc1cc(C(Cc2ccn(C(F)F)n2)n2cc(-c3ccc(C(N)=O)c(F)c3)cn2)[n+]([O-])cc1-c1cc(Cl)ccc1C(C)=O` (single isomer, unassigned) [Example Q77], the figure is 9.8 nM.
With `NC(=O)c1ccc(-c2cnn(C(CCOC(F)F)c3ccc(-c4c(-n5cnnn5)ccc(Cl)c4F)c[n+]3[O-])c2)cc1F` (single isomer, unassigned) [Example P929] the figure was 5.8 nM; with `COC(=O)Nc1ccc(-c2cnn(C(CC3CC3)c3cc(OC)c(-c4c(-n5cnnn5)ccc(Cl)c4F)c[n+]3[O-])c2)cc1` (centres unmarked) [Example P93], 4.5 nM.
Consider `[O-][n+]1cc(-c2cc(Cl)ccc2-n2cnnn2)ccc1C(Cc1ccc(Cl)cc1)n1cc(-c2ccc(F)nc2)cn1` (centres unmarked) [Example P173], for which the IC50 came to 78.4 nM.
For the compound `Cn1nnc(F)c1-c1cnn(C(CC2CC2)c2ccc(-c3c(-n4cnnn4)ccc(Cl)c3F)c[n+]2[O-])c1` (centres unmarked) [Example P743], the IC50 was > 100 nM.
With `[O-][n+]1cc(-c2c(-n3cc(Cl)nn3)ccc(Cl)c2F)ccc1C(Cn1cc(F)cn1)n1cc(-c2ccnc(C(F)(F)F)c2)cn1` (single isomer, unassigned) [Example P480] the figure was 31.2 nM; with `[O-][n+]1cc(F)c(-c2cnn(C(CC3CC3)c3ccc(-c4c(-n5cnnn5)ccc(Cl)c4F)c[n+]3[O-])c2)c(Cl)c1` (single isomer, unassigned) [Example P862], 148 nM.
`CCC(c1ccc(-c2c(-n3cnnn3)ccc(Cl)c2F)c[n+]1[O-])n1cc(-c2ccc(C(N)=O)c(F)c2)cn1` (single isomer, unassigned) [Example P949]: the IC50 stood at 21.6 nM.
For the compound `Cn1ncc(-c2cnn(C(CC3CC3)c3cc(Cl)c(-c4c(-n5cnnn5)ccc(Cl)c4F)c[n+]3[O-])c2)cc1=O` (centres unmarked) [Example P139], the IC50 was determined as 57.5 nM.
With `NC(=O)c1ccc(-c2cnn(C(Cc3nccs3)c3ccc(-c4c(-n5cc(C(F)(F)F)nn5)ccc(Cl)c4F)c[n+]3[O-])c2)cc1F` (single isomer, unassigned) [Example P943] the figure was 6.2 nM; with `Nc1ccc(-c2cnn(C(Cn3cc(CC(=O)N4CCCCC4)cn3)c3ccc(-c4c(-n5cnnn5)ccc(Cl)c4F)c[n+]3[O-])c2)c(F)n1` (centres unmarked) [Example P471], 51.7 nM.
As for `O=C1CCCN1CC(c1ccc(-c2c(-n3cnnn3)ccc(Cl)c2F)c[n+]1[O-])n1cc(-c2cc[n+]([O-])cc2)cn1` (single isomer, unassigned) [Example P244], the figure is 22.4 nM; as for `O=C(O)C1CCN(C(=O)C2CC2CC(c2ccc(-c3c(-n4cnnn4)ccc(Cl)c3F)c[n+]2[O-])n2cc(-c3ccccc3)cn2)CC1` (centres unmarked) [Example P213], 491 nM; as for `[O-][n+]1cc(-c2cc(Cl)ccc2-n2cnnn2)ccc1C(Cn1cc2c(n1)COCC2)n1cc(-c2ccnc(C(F)(F)F)c2)cn1` (centres unmarked) [Example P388], 126 nM.
